Experimental data from PubChem BioAssay (NCI).
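96-well plates; 48 h exposure; 5 concentrations. Endpoints by linear interpolation between flanking doses. Not reached: highest tested concentration assigned. TGI: total growth inhibition.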

Columns and labels:
Experiment in all cases: inhibition of tumour cell growth, NCI panel, 48 h
K-562 leukemia = system: K-562 leukemia
OVCAR-5 ovarian = system: OVCAR-5 ovarian
NCI/ADR-RES ovarian = system: NCI/ADR-RES ovarian
UO-31 renal = system: UO-31 renal
UACC-62 melanoma = system: UACC-62 melanoma
HCT-15 colon = system: HCT-15 colon
DU-145 prostate = system: DU-145 prostate
NCI-H23 lung = system: NCI-H23 lung
NCI-H460 lung = system: NCI-H460 lung
SK-MEL-28 melanoma = system: SK-MEL-28 melanoma
SK-OV-3 ovarian = system: SK-OV-3 ovarian
MDA-MB-435 = system: MDA-MB-435
EKVX NSCLC = system: EKVX NSCLC
U251 CNS = system: U251 CNS
MCF7 breast = system: MCF7 breast
RXF 393 renal = system: RXF 393 renal
OVCAR-3 ovarian = system: OVCAR-3 ovarian
HS 578T breast = system: HS 578T breast
ACHN renal = system: ACHN renal
RPMI-8226 leukemia = system: RPMI-8226 leukemia
SNB-19 CNS = system: SNB-19 CNS
TK-10 renal = system: TK-10 renal
SN12C renal = system: SN12C renal
SK-MEL-2 melanoma = system: SK-MEL-2 melanoma
OVCAR-8 ovarian = system: OVCAR-8 ovarian
BT-549 breast = system: BT-549 breast
HOP-92 NSCLC = system: HOP-92 NSCLC
MDA-N = system: MDA-N
HCT-116 colon = system: HCT-116 colon
LOX IMVI melanoma = system: LOX IMVI melanoma
MALME-3M melanoma = system: MALME-3M melanoma
HT29 colon = system: HT29 colon
MDA-MB-231 breast = system: MDA-MB-231 breast
PC-3 prostate = system: PC-3 prostate
OVCAR-4 ovarian = system: OVCAR-4 ovarian
HOP-62 NSCLC = system: HOP-62 NSCLC
HL-60(TB) leukemia = system: HL-60(TB) leukemia
786-0 renal = system: 786-0 renal
NCI-H226 lung = system: NCI-H226 lung
SF-539 CNS = system: SF-539 CNS
UACC-257 melanoma = system: UACC-257 melanoma
COLO 205 colon = system: COLO 205 colon
SF-295 CNS = system: SF-295 CNS
IGROV1 ovarian = system: IGROV1 ovarian
A549 NSCLC = system: A549 NSCLC
M14 melanoma = system: M14 melanoma
KM12 colon = system: KM12 colon
SR leukemia = system: SR leukemia
MOLT-4 leukemia = system: MOLT-4 leukemia
SW-620 colon = system: SW-620 colon
CCRF-CEM leukemia = system: CCRF-CEM leukemia
NCI-H522 lung = system: NCI-H522 lung
SF-268 CNS = system: SF-268 CNS
SNB-75 CNS = system: SNB-75 CNS
CAKI-1 renal = system: CAKI-1 renal
SK-MEL-5 melanoma = system: SK-MEL-5 melanoma
HCC-2998 colon = system: HCC-2998 colon

Work on COc1ccc2[nH]cc(CCNC(=O)[C@H](Cc3ccc(O)cc3)NC(=O)[C@@H](NCC(F)(F)F)C(C)C)c2c1 yielded a TGI (K-562 leukemia) of over 100 µM, a TGI (OVCAR-5 ovarian) of over 100 µM and a TGI (NCI/ADR-RES ovarian) of over 100 µM. It also gave a TGI (UO-31 renal) of over 100 µM, a TGI (UACC-62 melanoma) of over 100 µM and a TGI (HCT-15 colon) of over 100 µM. It also gave a TGI (DU-145 prostate) of over 100 µM, a TGI (NCI-H23 lung) of over 100 µM and a TGI (NCI-H460 lung) of over 100 µM. For the same compound, the TGI (SK-MEL-28 melanoma) was over 100 µM, the TGI (SK-OV-3 ovarian) was over 100 µM and the TGI (MDA-MB-435) was 83.3 µM. For the same compound, the TGI (EKVX NSCLC) was over 100 µM, the TGI (U251 CNS) was over 100 µM and the TGI (MCF7 breast) was over 100 µM. The TGI (RXF 393 renal) was over 100 µM, the TGI (OVCAR-3 ovarian) was 57.4 µM and the TGI (HS 578T breast) was 91.1 µM. For the same compound, the TGI (ACHN renal) was over 100 µM, the TGI (RPMI-8226 leukemia) was over 100 µM and the TGI (SNB-19 CNS) was over 100 µM. For the same compound, the TGI (TK-10 renal) was over 100 µM, the TGI (SN12C renal) was over 100 µM and the TGI (SK-MEL-2 melanoma) was over 100 µM. It also gave a TGI (OVCAR-8 ovarian) of over 100 µM, a TGI (BT-549 breast) of over 100 µM and a TGI (HOP-92 NSCLC) of over 100 µM. It also gave a TGI (MDA-N) of over 100 µM, a TGI (HCT-116 colon) of over 100 µM and a TGI (LOX IMVI melanoma) of over 100 µM. The TGI (MALME-3M melanoma) was over 100 µM, the TGI (HT29 colon) was over 100 µM and the TGI (MDA-MB-231 breast) was over 100 µM. It also gave a TGI (PC-3 prostate) of over 100 µM, a TGI (OVCAR-4 ovarian) of over 100 µM and a TGI (HOP-62 NSCLC) of over 100 µM. It also gave a TGI (HL-60(TB) leukemia) of over 100 µM, a TGI (786-0 renal) of over 100 µM and a TGI (NCI-H226 lung) of over 100 µM. The TGI (SF-539 CNS) was over 100 µM, the TGI (UACC-257 melanoma) was over 100 µM and the TGI (COLO 205 colon) was over 100 µM. For the same compound, the TGI (SF-295 CNS) was over 100 µM, the TGI (IGROV1 ovarian) was over 100 µM and the TGI (A549 NSCLC) was over 100 µM. It also gave a TGI (M14 melanoma) of over 100 µM, a TGI (KM12 colon) of over 100 µM and a TGI (SR leukemia) of over 100 µM. It also gave a TGI (MOLT-4 leukemia) of over 100 µM, a TGI (SW-620 colon) of over 100 µM and a TGI (CCRF-CEM leukemia) of over 100 µM. For the same compound, the TGI (NCI-H522 lung) was over 100 µM.

O=P1(c2ccccc2)C(c2ccccc2)CCC1c1ccccc1 (centres undefined) gave a TGI (K-562 leukemia) of over 100 µM, a TGI (UO-31 renal) of over 100 µM and a TGI (UACC-62 melanoma) of over 100 µM. For the same compound, the TGI (HCT-15 colon) was over 100 µM, the TGI (DU-145 prostate) was over 100 µM and the TGI (NCI-H23 lung) was over 100 µM. For the same compound, the TGI (SK-MEL-28 melanoma) was over 100 µM, the TGI (SK-OV-3 ovarian) was over 100 µM and the TGI (MDA-MB-435) was over 100 µM. The TGI (EKVX NSCLC) was over 100 µM, the TGI (MCF7 breast) was over 100 µM and the TGI (RXF 393 renal) was over 100 µM. The TGI (OVCAR-3 ovarian) was over 100 µM, the TGI (HS 578T breast) was over 100 µM and the TGI (RPMI-8226 leukemia) was 78.2 µM. It also gave a TGI (SNB-19 CNS) of over 100 µM, a TGI (TK-10 renal) of over 100 µM and a TGI (SN12C renal) of over 100 µM. It also gave a TGI (OVCAR-8 ovarian) of over 100 µM, a TGI (BT-549 breast) of 85.5 µM and a TGI (SF-268 CNS) of over 100 µM. It also gave a TGI (HOP-92 NSCLC) of over 100 µM, a TGI (MDA-N) of over 100 µM and a TGI (HCT-116 colon) of over 100 µM. The TGI (LOX IMVI melanoma) was over 100 µM, the TGI (MDA-MB-231 breast) was over 100 µM and the TGI (PC-3 prostate) was over 100 µM. It also gave a TGI (HOP-62 NSCLC) of over 100 µM, a TGI (HL-60(TB) leukemia) of 43.4 µM and a TGI (786-0 renal) of over 100 µM. It also gave a TGI (NCI-H226 lung) of over 100 µM, a TGI (SF-539 CNS) of over 100 µM and a TGI (UACC-257 melanoma) of over 100 µM. For the same compound, the TGI (SNB-75 CNS) was over 100 µM, the TGI (CAKI-1 renal) was 73.9 µM and the TGI (COLO 205 colon) was over 100 µM. The TGI (SF-295 CNS) was over 100 µM, the TGI (IGROV1 ovarian) was over 100 µM and the TGI (SK-MEL-5 melanoma) was over 100 µM. The TGI (A549 NSCLC) was over 100 µM, the TGI (HCC-2998 colon) was over 100 µM and the TGI (M14 melanoma) was over 100 µM. The TGI (KM12 colon) was over 100 µM, the TGI (MOLT-4 leukemia) was over 100 µM and the TGI (SW-620 colon) was over 100 µM. The TGI (CCRF-CEM leukemia) was over 100 µM and the TGI (NCI-H522 lung) was over 100 µM.
